Laboratory results as given in patent publication US8349845B2, “Thiazolopyrimidines for use in therapy” (Sosei Group Corporation, priority 2005, dated 2013).

Tests used:
[1] = tested on: rat Brennan model of surgical pain; assay: PWT in the rat Brennan model of surgical pain; format: in vivo
Method: The surgical pain model was prepared as described by Brennan et al (1996). Briefly, the rat was anaesthetised with 5% isofluorane in oxygen (2 L/min) for induction followed by an intravenous injection of sodium pentobarbitone (50 mg/kg) prior to surgery. The surgery was carried out under aseptic routines. The left hind paw was sterilized with 75% ethanol solution. A 1.5 cm longitudinal incision was made with a scalpel from about 0.5 cm of the heel edge towards the toes. The plantaris muscle and fascia were elevated and incised longitudinally but the structure of these tissues kept intact. After complete hemostasis with pressure, the skin was closed with stitches of 5-0 suture silk. The animal was routinely given an intraperitoneal injection of Amoxipen 15 mg/kg for prevention of infection after surgery. After surgery, the animals were placed in a temperature-controlled recovering chamber until full return of conscience and voluntary movement, before being returned to their home cages.

[2] = tested on: rats with diabetic neuropathy; assay: PWT in rats with streptozotocin-induced diabetic neuropathy; format: in vivo, rat
Method: Under isofluorane anaesthesia, adult male Sprague-Dawley rats (150-200 g) were given an intraperitoneal injection of streptozotocin (75 mg/kg, Calbiochem). After injection, particular care was taken to ensure that water and food were available at all time and the beddings were changed frequently. A week after streptozocin injection, the blood glucose content was examined using Advantage II with Accutech strips (Roche). Only rats with blood glucose higher than 12 mM/L (216 mg/DL) were chosen for behavioural study. The assessment of neuropathic pain state using von Frey hairs was the same as described for Example 1. Rats with lowered PWT (<4 g) were used for either vehicle (1 ml/kg, p.o. or Compound 1 (1, 3, 10, and 30 mg/kg p.o.) dosing. The PWT was reassessed at 1, 2, 3, 4 and 6 hours after oral dosing.

[3] = tested on: CCI rats; assay: Single oral dose study, mechanical allodynia (von Frey PWT) in rat chronic constriction injury (CCI) model; format: in vivo; conditions: 20 mg/kg p.o.; for paw withdrawal threshold (PWT): mean±S.E.M.
Method: The rat chronic constriction injury (CCI) model was prepared following the standard protocols (Bennett and Xie, 1988). Briefly, male Sprague-Dawley rats, weighing 150-175 gram at arrival, were anaesthetized with a 5% isofluorane/95% oxygen gas mixture followed by an i.p. injection of sodium pentobarbitone (50 mg/kg). The lateral side of the left hind limb was shaved and sterilized with 75% ethanol. An incision of about 1 cm was made to expose the sciatic nerve. Four loose ligations with 4-0 suture silk were made on the sciatic nerve. The wound was closed in layers with silk suture and the animals were placed in a recovering chamber with the temperature controlled at 30° C. The animals were then returned to their home cage after complete return of consciousness and the return of free movement. A dose of amoxicillin (0.1 ml, 15 mg) was routinely injected intraperitoneally after surgery to prevent infection. In CCI rats, the assessment of paw withdrawal threshold (PWT) in response to the mechanical stimulation started 14 days after surgery. […] The PWT was measured using a series of graduated von Frey hairs. The animals were placed in individual perspex boxes on a raised metal mesh for at least 30 min before the test. Starting from a filament of lower force (1 g), each filament was applied perpendicularly to the centre of the paw pad until it slightly bends for 6 seconds. If the animal withdrew or lifted the paw upon stimulation, then a hair with force immediately lower than that tested would be used. If no response was observed, then a hair with force immediately higher would be used. The lowest amount of force required to induce reliable responses (positive in 3 out of 5 trials) was recorded as the value of PWT. A suspension of Compound 1 was made with 5% DMSO in saline (10 mg/ml). The suspension was sonicated for at least 20 min before application. All data in this study are presented as mean±S.E.M. and are analysed with the student-t-test or one way ANOVA as appropriate. The significance level was set at P<0.05.

[4] = tested on: CCI rats; assay: Dose-response study, mechanical allodynia (PWT) in CCI model; format: in vivo, rat; conditions: CCI rats, 1, 3, 10, 30 mg/kg orally, 30-360 min after dosing
Method: The methods for preparing CCI animals and assessing mechanical allodynia using von Frey hairs were as described in Example 1. Four doses of Compound 1 (1, 3, 10, 30 mg/kg) were given orally and the PWT was reassessed at 30, 60, 120, 180, 240 and 360 min after dosing.

[5] = tested on: lipopolysaccharide-induced polyclonal antibody responses; conditions: preclinical studies; cited from earlier work
[6] = tested on: ectopic discharge in CCI rats; assay: Chronic dosing, generation of ectopic discharge and PWT in CCI rats; format: in vivo, rat
Method: After confirmation of neuropathic pain state on day 16 post-surgery, the animals (4 for vehicle group and 4 for drug treatment group) were given either vehicle (5% DMSO in saline) or Compound 130 mg/kg p.o., twice a day for 8 days. At the end of the dosing protocol, the PWT was reassessed before the electrophysiological experiment. The sural nerve was repeatedly teased into fine bundles for examination. For a fibre with spontaneous activity, the recording lasted for at least 1 min; for a fiber without obvious spontaneous activity, the recording lasted for at least 30 sec. In each sural nerve, as many fibres as possible were teased and recorded (more than 150 bundles on average in one animal).

[7] = tested on: CCI rats; assay: Tolerance liability in CCI model (PWT over 7 days of dosing); format: in vivo, rat
Method: The preparation of CCI model rats and the assessment of neuropathic pain state using von Frey hairs were as the same as described for Example 1. The PWT was assessed in the morning for 3 consecutive days prior to the surgery and on days 6, 14, 15 and 16 after surgery. Starting from day 16, the animals were either dosed with vehicle (5% DMSO in saline, 1 ml/kg) or Compound 130 mg/kg p.o., twice a day for 7 days. From day 16 onward, PWT was assessed thereafter every morning and 4 hours after dosing, up to day 23 post surgery.

[8] = tested on: ectopic discharge in CCI rats; assay: Acute administration, spontaneous ectopic discharge in sural nerve of CCI rats; format: in vivo, rat
Method: The preparation of CCI model rats and the assessment of neuropathic pain state were as described for Example 1. The electrophysiological experiments were performed on CCI rats with neuropathic pain states confirmed by von Frey hair testing as previously described. Compound 1 suspension was made in a vehicle containing 1% DMSO, 66% PEG200 and 33% saline to 5 mg/ml. Rats with neuropathic pain were anaesthetized with thiobutabarbital sodium (inactin, 120 mg/kg, i.p. for induction and thereafter 60 mg/kg, i.p. for maintenance, if necessary). The arterial blood pressure and heart rate were routinely monitored and rectal temperature was continuously monitored and maintained at a physiological range using a thermo-blanket system. The skin of the left hind limb was incised and stitched onto a stainless steel “O” ring to form an oil pool. The sural nerve was carefully exposed and repeatedly teased into small bundles containing only one or a few fibres and examined for spontaneous activity. In acute experiments, when an active fibre was found, a period of at least 20 min control recording was obtained. Subsequently, the effects of the vehicle and Compound 1 (5 mg/kg, i.v.) were examined. Activity was monitored for at least 40 minutes following administration of the drug. The frequency of the spontaneous activity was monitored online and analysed offline after experiment. For i.v. injection, Compound 1 suspension (5 mg/ml) was prepared using a vehicle made of 1% DMSO, 66% polyethelene glycol (PEG 200) and 33% normal saline. The suspension was then sonicated for 30 min before administration.

[9] = tested on: mice with autoimmune neuropathy; conditions: preclinical studies; cited from earlier work
[10] = doses higher than 3 mg/kg p.o., dose-dependent
[11] = CCI rats after chronic treatment

## O=C1N=C2SCCN2C(=O)C1Cc1ccc(Cl)cc1 (stereo not shown) [Compound 1, 6-(p-chlorobenzyl)-5H-2,3,6,7-tetrahydro-5,7-dioxothiazolo[3,2-a]pyrimidine]
[1]
  time after dosing at which the effect on PWT was first observed: 4 h
  time after dosing up to which the effect on PWT lasted: up to 8 hours
[1]; 3 mg/kg, n=7, P>0.05
  changes in PWT: Neither vehicle (n=8) or Compound 1 at 3 mg/kg (n=7) produced significant changes in PWT
[1]; 10 mg/kg
  analgesic effect after 6 hours: had gone
[1]; 10 mg/kg, at 4 hours, from control level 1.50±0.36 g, P<0.05
  PWT: 2.60 ± 0.48 g
[1]; 30 mg/kg, 6 hours post-dose, P<0.001 vs vehicle
  PWT: 5.28 ± 0.66 g
[1]; 30 mg/kg, 8 hours post-dose, P<0.001 vs vehicle
  PWT: 4.16 ± 0.79 g
[1]; 30 mg/kg, at 4 hours, from control level 1.82±3.8 g, P<0.001
  PWT: 3.80 ± 0.44 g
[1]; [10]
  changes in PWT: significantly increased the PWT
[2]; 1 mg/kg p.o.
  changes in PWT: Neither vehicle or Compound 1 at 1 mg/kg produced significant changes in PWT
[2]; [10]
  changes in PWT: significantly increased the PWT
[3]
  duration of the effect on PWT: > 6 h
[3]; 2 hours after dosing, P<0.05 vs vehicle
  paw withdrawal threshold (PWT): 2.6 ± 0.7 g
[3]; 3 hours after dosing, P<0.01 vs vehicle
  paw withdrawal threshold (PWT): 3.0 ± 0.7 g
[3]; 4 hours after dosing, P<0.001 vs vehicle
  paw withdrawal threshold (PWT): 6.3 ± 0.8 g
[3]; 6 hours after dosing, P<0.001 vs pre-dosing control
  paw withdrawal threshold (PWT): 4.0 ± 0.5 g
[4]
  effect on PWT: dose-dependently increased the PWT
[5]
  lipopolysaccharide-induced polyclonal antibody responses: inhibited
[6]; 4 CCI rats, after 8 days of treatment p.o. twice a day
  PWT compared with vehicle-treated: significantly higher
[6]; [11]
  averaged frequency of spontaneous activity: 888.9 ± 148.5 min⁻¹
  comparison of averaged frequency of spontaneous activity with vehicle group: failed to reveal significant difference
[6]; among 633 fibres recorded from 4 treated rats (vehicle 197 of 602)
  fibres with spontaneous activity: 48 fibres
[6]; chronic treatment of CCI rats, vs vehicle, P<0.001 χ2 test
  proportions of fibres with spontaneous activity: significantly reduced
[7]; after the first day's treatment and throughout the 7 day dosing period, p.o. twice a day
  baseline PWT compared with vehicle group: higher than that observed in the vehicle group
[7]; on repeat dosing
  time for which CCI-induced mechanical allodynia is alleviated post-dose: 12 h
[7]; over 7 days of treatment
  loss of efficacy in reversing lowered PWT: no significant loss of efficacy
[8]; first CCI preparation, 5 mg/kg i.v., reduced from 682 imps/min
  ectopic discharge after injection: 426 imps/min
[8]; four fibres, after administration, P<0.01
  firing rate of ectopic discharge, % of control: 57.1±9.0 % of control
[8]; four fibres, before drug 489.7±125.8 imps/min, P<0.01
  average firing rate of ectopic discharge after administration: 307.6±113.4 imps/min
[8]; second CCI preparation, iv injection, reduced from 298 imps/min
  ectopic discharge after injection: 104 imps/min
[9]
  kidney function: restored kidney function
